Assay results taken from ChEMBL document CHEMBL1142026, “Isoindolinone-based inhibitors of the MDM2-p53 protein-protein interaction” (Bioorg Med Chem Lett, 2005).

Tests used:
[1] = biological target: Tumour suppressor p53/oncoprotein Mdm2 (Homo sapiens, UniProt Q00987); assay: (§1) Inhibitory concentration against MDM2-p53 interaction in SJSA human sarcoma cells; format: cell-based, SJSA-1
[2] = biological target: Tumour suppressor p53/oncoprotein Mdm2 (Homo sapiens, UniProt P04637+Q00987); assay: as §1; format: cell-based, SJSA-1; conditions: sjsa-1
Tumour suppressor p53/oncoprotein Mdm2 (Homo sapiens, UniProt P04637+Q00987), sequence (P04637 whole entry): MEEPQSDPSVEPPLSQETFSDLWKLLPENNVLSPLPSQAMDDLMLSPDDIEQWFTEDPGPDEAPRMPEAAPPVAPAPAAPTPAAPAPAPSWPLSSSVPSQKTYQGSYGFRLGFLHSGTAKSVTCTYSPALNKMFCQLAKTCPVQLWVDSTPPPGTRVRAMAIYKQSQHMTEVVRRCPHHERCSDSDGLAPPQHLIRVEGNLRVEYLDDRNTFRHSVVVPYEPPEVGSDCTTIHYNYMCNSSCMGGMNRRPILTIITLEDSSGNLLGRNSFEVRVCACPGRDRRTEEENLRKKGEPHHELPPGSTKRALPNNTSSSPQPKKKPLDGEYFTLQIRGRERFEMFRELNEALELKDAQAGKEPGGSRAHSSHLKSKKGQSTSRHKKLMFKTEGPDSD
Tumour suppressor p53/oncoprotein Mdm2 (Homo sapiens, UniProt P04637+Q00987), sequence (Q00987 whole entry): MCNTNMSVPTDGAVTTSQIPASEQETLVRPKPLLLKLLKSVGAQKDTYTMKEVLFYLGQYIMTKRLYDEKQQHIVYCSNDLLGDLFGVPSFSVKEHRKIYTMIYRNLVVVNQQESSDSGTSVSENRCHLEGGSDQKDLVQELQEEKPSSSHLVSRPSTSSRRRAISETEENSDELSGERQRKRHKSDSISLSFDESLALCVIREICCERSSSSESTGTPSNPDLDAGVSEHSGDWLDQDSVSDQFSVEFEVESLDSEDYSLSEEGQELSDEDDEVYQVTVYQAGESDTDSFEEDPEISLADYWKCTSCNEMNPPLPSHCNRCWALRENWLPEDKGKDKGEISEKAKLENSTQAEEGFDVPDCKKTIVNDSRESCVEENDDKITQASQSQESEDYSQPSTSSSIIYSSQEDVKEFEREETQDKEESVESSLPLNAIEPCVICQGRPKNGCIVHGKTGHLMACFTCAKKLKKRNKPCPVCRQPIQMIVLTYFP

Tumour suppressor p53/oncoprotein Mdm2 (Homo sapiens, UniProt Q00987), sequence (P04637 whole entry): as the sequence (P04637 whole entry) above
Tumour suppressor p53/oncoprotein Mdm2 (Homo sapiens, UniProt Q00987), sequence (Q00987 whole entry): as the sequence (Q00987 whole entry) above

| IC50 [1] | IC50 [2] | SMILES |
| --- | --- | --- |
| ~200 µM |  | CCCOC1(c2ccccc2)c2ccccc2C(=O)N1Cc1ccccc1 (centres undefined) |
| 66 µM |  | CCCN1C(=O)c2ccccc2C1(NC(=O)c1ccccc1)c1ccc(C(C)(C)C)cc1 (centres undefined) |
| 14 µM |  | CC(=O)NCCN1C(=O)c2ccccc2C1(OCc1ccc(C(C)(C)C)cc1)c1ccccc1 (centres undefined) |
|  | 92 µM | CC(C)(C)c1ccc(COC2(c3ccccc3)c3ccccc3C(=O)N2Cc2ccccc2)cc1 (stereo in doubt; 2d) |
| 90 µM |  | CCCOC1(c2ccccc2)c2ccccc2C(=O)N1C(Cc1ccc(O)cc1)C(=O)OC (centres undefined) |
| 27 µM |  | CCCN1C(=O)c2ccccc2C1(NC(=O)c1ccc(C(C)(C)C)cc1)c1ccc(OCOCC[Si](C)(C)C)cc1 (centres undefined) |
| 5.3 µM |  | CCCN1C(=O)c2ccccc2C1(OCc1cc(OC)c(O)c(OC)c1)c1ccc(Cl)cc1 (centres undefined) |
| 17.9 µM |  | COc1cc(COC2(c3ccccc3)c3ccccc3C(=O)N2Cc2ccccc2)cc(OC)c1O (centres undefined) |
| 99 µM |  | CC(C)(C)c1ccc(COC2(c3ccc(Cl)cc3)c3ccccc3C(=O)N2Cc2ccccc2)cc1 (centres undefined) |
| 82 µM |  | CCCN1C(=O)c2ccccc2C1(OCc1cc(OC)c(O)c(OC)c1)c1ccccc1 (centres undefined) |

Continued, compound first:

| SMILES | IC50 [1] | IC50 [2] |
| --- | --- | --- |
| CCCN1C(=O)c2ccccc2C1(OCCc1ccccn1)c1ccc(Cl)cc1 (centres undefined) | 57 µM |  |
| CCCN1C(=O)c2ccccc2C1(OCCCO)c1ccc(Cl)cc1 (centres undefined) | 16.4 µM |  |
| CC(C)(C)c1ccc(COC2(c3ccccc3)c3ccccc3C(=O)N2Cc2ccccc2)cc1 (stereo in doubt; 5) | 92 µM |  |
| O=C1c2ccccc2C(OCCCO)(c2ccc(Cl)cc2)N1Cc1ccccc1 (centres undefined) | 15.9 µM |  |
| CCCOC1(c2ccccc2)c2ccccc2C(=O)N1CCC (centres undefined) | ~200 µM |  |
| COc1ccc(C(O)CNC2(c3ccccc3)c3ccccc3C(=O)N2Cc2ccccc2)cc1 (centres undefined) | 70 µM |  |
| CCCNC1(c2ccccc2)c2ccccc2C(=O)N1Cc1ccccc1 (centres undefined) | ~200 µM |  |
| CCCN1C(=O)c2ccccc2C1(OCCCO)c1ccccc1 (centres undefined) | > 500 µM |  |
| CCCN1C(=O)c2ccccc2C1(OCCc1ccccn1)c1ccccc1 (centres undefined) | 100 µM |  |
| COc1cc(COC2(c3ccc(Cl)cc3)c3ccccc3C(=O)N2Cc2ccccc2)cc(OC)c1O (centres undefined) | 42 µM |  |
| CCCN1C(=O)c2ccccc2C1(OCc1ccc(C(C)(C)C)cc1)c1ccccc1 (centres undefined) | > 500 µM |  |
| CC(=O)NCCN1C(=O)c2ccccc2C1(OCc1ccc(C(C)(C)C)cc1)c1ccc(Cl)cc1 (centres undefined) | 91.4 µM |  |
| COc1cc(COC2(c3ccc(Cl)cc3)c3ccccc3C(=O)N2CCNC(C)=O)cc(OC)c1O (centres undefined) | 76 µM |  |
| O=C1c2ccccc2C(OCCc2ccccn2)(c2ccc(Cl)cc2)N1Cc1ccccc1 (centres undefined) | 26.2 µM |  |
